Assay results taken from patent US20250041190A1, “Composition and application, in particular cosmetic” (MICROPHYT, priority 2021, published 2025).

Columns and labels:
neuropeptide CGRP [1] = assay: CGRP ELISA assay in co-culture of keratinocytes and sensory neurons, oxidative stress with AITC; type: cell-based, human; conditions: positive control: AITC 1 mM alone, 30 min stress; unstressed control (DMSO 0.2%) = 100; n=6
Description: (§1) Sensory neurons were obtained from hiPS cells (human induced pluripotent stem cells), which were themselves obtained from human fibroblasts. The cells were seeded and maintained for 6 days in a differentiation-inducing medium at 37° C. (5% CO2). The culture medium was changed every 2 days. After 9 days in culture, the culture medium was replaced with a maturation medium. Cells were maintained in culture at a temperature of 37° C. under 5% CO2. The culture medium was changed every 2-3 days. After 14 days in culture, commercial keratinocytes from an adult donor (Lonza) were added to the differentiated hiPS cell culture. The co-culture was maintained in a culture medium consisting of a mixture of maturation medium and keratinocyte growth medium (Promocell) at a temperature of 37° C. under 5% CO2. The culture medium was changed every 2-3 days.
(§2) After a 17-day co-culture period, the composition was added to the medium at a final concentration by weight relative to the total weight of the medium and composition of 0.01% or 0.05% (w/w). […]
CGRP assay: After a 30-minute stress period, the culture supernatants were recovered and a CGRP assay by ELISA was performed. The results are expressed as the mean of 6 samples (n=6). […]

[2] = tested on: MOR receptor (μ-opioid receptor); assay: MOR receptor immunolabeling in co-culture of human keratinocytes and sensory neurons stressed with AITC; type: cell-based; conditions: positive control: AITC 1 mM alone; composition-free control (DMSO 0.2%) = 100; n=6
Description: as §1, §2
(§3) Photographs were taken with an automated microscope (InCell 2200; GE Healthcare) at ×20 magnification. MOR marker expression density was measured and compared with the control condition, corresponding to the mean of 6 samples (n=6). […]

[3] = tested on: MOR receptor (μ-opioid receptor); assay: MOR receptor immunolabeling in co-culture of human keratinocytes and sensory neurons stressed with capsaicin; type: cell-based; conditions: positive control: capsaicin 10 μM alone; composition-free control (DMSO 0.2%) = 100; n=6
Description: as §1, §2, §3

neuropeptide CGRP [4] = assay: CGRP ELISA assay in co-culture of keratinocytes and sensory neurons, oxidative stress with capsaicin; type: cell-based, human; conditions: positive control: capsaicin 10 μM alone, 30 min stress; unstressed control (DMSO 0.2%) = 100; n=6
Description: Sensory neurons were obtained from hiPS cells (human induced pluripotent stem cells), which were themselves obtained from human fibroblasts. The cells were seeded and maintained for 6 days in a differentiation-inducing medium at 37° C. (5% CO2). The culture medium was changed every 2 days. After 9 days in culture, the culture medium was replaced with a maturation medium. Cells were maintained in culture at a temperature of 37° C. under 5% CO2. The culture medium was changed every 2-3 days. After 14 days in culture, commercial keratinocytes from an adult donor (Lonza) were added to the differentiated hiPS cell culture. The co-culture was maintained in a culture medium consisting of a mixture of maturation medium and keratinocyte growth medium (Promocell) at a temperature of 37° C. under 5% CO2. The culture medium was changed every 2-3 days. After a 17-day co-culture period, the composition was added to the medium at a final concentration by weight relative to the total weight of the medium and composition of 0.01% or 0.05% (w/w). After a 24-hour incubation period, capsaicin (10 µM) or AITC (1 mM) or DMSO (0.2% w/w) as a control, was added to the co-culture in the presence of the composition according to the invention. […] The results are expressed as the mean of 6 samples (n=6).

[5] = tested on: co-culture of sensory neurons and keratinocytes; assay: Length of neuronal extensions in co-culture of sensory neurons and keratinocytes stressed with capsaicin; type: cell-based, human; conditions: positive control: capsaicin 10 μM alone; composition-free control (DMSO 0.2%) = 100; n=6
Description: as §1
After a 17-day co-culture period, the composition was added to the medium at a final concentration by weight relative to the total weight of the medium and composition of 0.01% or 0.05% (w/w).
After a 24-hour incubation period, capsaicin (10 µM) or AITC (1 mM) or DMSO (0.2% w/w) as a control, was added to the co-culture in the presence of the composition according to the invention. […]
A neuron count was performed and the length of the neuronal extensions was measured for each condition. […]

Row | SMILES | Protein amount of CGRP (%) (neuropeptide CGRP [1]) | Level of MOR receptor protein expression (%) [2] [%] | Level of MOR receptor protein expression (%) [3] [%] | Protein amount of CGRP (%) (neuropeptide CGRP [4]) | Length of neuronal extensions/nbr of neurons (%) [5] [%]
1 | C=CCN=C=S [AITC, allyl isothiocyanate] | 132 | 78 |  |  | 
2 | COc1cc(CNC(=O)CCCC/C=C/C(C)C)ccc1O [capsaicin] |  |  | 82 | 135 | 76
